# Laboratory results taken from US9695133B2, “Quinazolinone-based oncogenic-RAS-selective lethal compounds and their use” (THE TRUSTEES OF COLUMBIA UNIVERSITY IN THE CITY OF NEW YORK, priority 2012, dated 2017).
# “And” between values parts separate entries of the source, which are not always exact repeats. Equal values may be shown once. Read-outs that look alike come from different tables or passages of the source.
# Columns and labels:
# [1] = Plasma pharmacokinetics after single IV and PO dose; type: in vivo, male C57BL6/j mice; conditions: for Plasma Concentration, individual mice / concentration at 0.5 hr / concentration at 1 hr / concentration at 2 hr / concentration at 4 hr / concentration at 8 hr / concentration at 12 hr / Vd: 20 mg/kg; for MRT inf: read-out: MRT(0-∞)
# Protocol: Three mice in each group were used for blood collection at each time point. Blood samples (approximately 400 μL) were collected after euthanasia using carbon dioxide inhalation via cardiac puncture pre-dose and 30 minutes, 1 hour, 2 hours, 4 hours, 8 hours and 12 hours post-dose. Blood samples were placed into tubes containing sodium heparin and centrifuged at 8000 rpm for 6 minutes at 4° C. to separate plasma from the blood samples. Following centrifugation, the resulting plasma was transferred to clean tubes and stored frozen at −80° C. until bioanalysis by the Testing Facility.
# [2] = Postdose observations in the pharmacokinetic study; type: in vivo, male C57BL6/j mice; conditions: single 20 mg/kg IV or PO
# [3] = male, C57BL6/j, mouse, in vivo, po, 20 mg/kg
# [4] = in vivo; conditions: male, C57BL6/j, mouse, 20 mg/kg
# [5] = tested on: BJeLR cells; experiment: RSL testing: growth inhibition (alamar blue) in BJeLR cells; type: cell-based; conditions: Homo sapiens, BJeLR
# Protocol: Cell viability was determined using alamar blue and percent growth inhibition computed as described previously (Id.).
# [6] = male, C57BL6/j, mouse, plasma, IV 20 mg/kg
# [7] = male, C57BL6/j, mouse, plasma, PO 20 mg/kg
# [8] = iv, Brain Concentration, individual mice
# [9] = iv, Brain-Plasma Concentration Ratio, Mean
# [10] = iv, Brain-Plasma Concentration Ratio, individual mice
# [11] = po, Brain Concentration, individual mice
# [12] = po, Brain-Plasma Concentration Ratio, Mean
# [13] = po, Brain-Plasma Concentration Ratio, individual mice
smiles,measurement,setting,value
"CC(C)Oc1ccc(CN2CCNCC2)cc1-n1c(CN2CCN(C(=O)COc3ccc(Cl)cc3)CC2)nc2ccccc2c1=O [PE, 2-((4-(2-(4-chlorophenoxy)ethanoyl)piperazin-1-yl)methyl)-3-(2-isopropoxy-5-(piperazin-1-ylmethyl)phenyl)quinazolin-4(3H)-one]","Plasma Concentration, individual mice","[1]; IV 20 mg/kg, 0.5 hr",4625.87 ng/mL and 2218.81 ng/mL and 2826.92 ng/mL
same,"Plasma Concentration, individual mice","[1]; IV 20 mg/kg, 1 hr",1548.38 ng/mL and 657.50 ng/mL and 1509.78 ng/mL
same,"Plasma Concentration, individual mice","[1]; IV 20 mg/kg, 2 hr",1016.04 ng/mL and 1054.66 ng/mL
same,"Plasma Concentration, individual mice","[1]; IV 20 mg/kg, 4 hr",200.14 ng/mL and 657.19 ng/mL and 379.24 ng/mL
same,"Plasma Concentration, individual mice","[1]; IV 20 mg/kg, 8 hr",105.57 ng/mL and 148.67 ng/mL
same,"Plasma Concentration, individual mice","[1]; IV 20 mg/kg, 12 hr",34.53 ng/mL and 159.78 ng/mL and 96.08 ng/mL
same,"Plasma Concentration, individual mice","[1]; PO 20 mg/kg, 0.5 hr",365.89 ng/mL and 403.60 ng/mL and 87.63 ng/mL
same,"Plasma Concentration, individual mice","[1]; PO 20 mg/kg, 1 hr",1635.86 ng/mL and 1288.53 ng/mL
same,"Plasma Concentration, individual mice","[1]; PO 20 mg/kg, 2 hr",1260.55 ng/mL and 527.50 ng/mL and 1016.24 ng/mL
same,"Plasma Concentration, individual mice","[1]; PO 20 mg/kg, 4 hr",642.39 ng/mL and 669.76 ng/mL
same,"Plasma Concentration, individual mice","[1]; PO 20 mg/kg, 8 hr",23.99 ng/mL and 28.91 ng/mL
same,"Plasma Concentration, individual mice","[1]; PO 20 mg/kg, 12 hr",21.10 ng/mL and 15.06 ng/mL
same,concentration at 0.5 hr,"[1]; male, C57BL6/j, mouse, plasma, iv, IV 20 mg/kg, 0.5 hr",3220 ng/mL
same,concentration at 1 hr,"[1]; male, C57BL6/j, mouse, plasma, iv, IV 20 mg/kg, 1 hr, read-out: Plasma Concentration, Mean",1240 ng/mL
same,concentration at 2 hr,"[1]; male, C57BL6/j, mouse, plasma, iv, IV 20 mg/kg, 2 hr, read-out: Plasma Concentration, Mean",997 ng/mL
same,concentration at 2 hr,"[1]; male, C57BL6/j, mouse, plasma, iv, IV 20 mg/kg, 2 hr, read-out: Plasma Concentration, individual mice",920 ng/mL
same,concentration at 4 hr,"[1]; male, C57BL6/j, mouse, plasma, iv, IV 20 mg/kg, 4 hr, read-out: Plasma Concentration, Mean",412 ng/mL
same,concentration at 8 hr,"[1]; male, C57BL6/j, mouse, plasma, iv, IV 20 mg/kg, 8 hr, read-out: Plasma Concentration, Mean",134 ng/mL
same,concentration at 8 hr,"[1]; male, C57BL6/j, mouse, plasma, iv, IV 20 mg/kg, 8 hr, read-out: Plasma Concentration, individual mice",147 ng/mL
same,concentration at 12 hr,"[1]; male, C57BL6/j, mouse, plasma, iv, IV 20 mg/kg, 12 hr, read-out: Plasma Concentration, Mean",96.8 ng/mL
same,Vd,"[1]; male, C57BL6/j, mouse, plasma, iv, plasma, IV 20 mg/kg, read-out: Vz",9.63 L/kg
same,Vd,"[1]; male, C57BL6/j, mouse, plasma, iv, plasma, IV 20 mg/kg, read-out: volume of distribution at terminal phase",9.63 L/kg
same,concentration at 0.5 hr,"[1]; male, C57BL6/j, mouse, plasma, po, PO 20 mg/kg, 0.5 hr",286 ng/mL
same,concentration at 1 hr,"[1]; male, C57BL6/j, mouse, plasma, po, PO 20 mg/kg, 1 hr, read-out: Plasma Concentration, Mean",1390 ng/mL
same,concentration at 1 hr,"[1]; male, C57BL6/j, mouse, plasma, po, PO 20 mg/kg, 1 hr, read-out: Plasma Concentration, individual mice",1240 ng/mL
same,concentration at 2 hr,"[1]; male, C57BL6/j, mouse, plasma, po, PO 20 mg/kg, 2 hr, read-out: Plasma Concentration, Mean",935 ng/mL
same,concentration at 4 hr,"[1]; male, C57BL6/j, mouse, plasma, po, PO 20 mg/kg, 4 hr, read-out: Plasma Concentration, Mean",696 ng/mL
same,concentration at 4 hr,"[1]; male, C57BL6/j, mouse, plasma, po, PO 20 mg/kg, 4 hr, read-out: Plasma Concentration, individual mice",777 ng/mL
same,concentration at 8 hr,"[1]; male, C57BL6/j, mouse, plasma, po, PO 20 mg/kg, 8 hr, read-out: Plasma Concentration, Mean",24 ng/mL
same,concentration at 8 hr,"[1]; male, C57BL6/j, mouse, plasma, po, PO 20 mg/kg, 8 hr, read-out: Plasma Concentration, individual mice",19.1 ng/mL
same,concentration at 12 hr,"[1]; male, C57BL6/j, mouse, plasma, po, PO 20 mg/kg, 12 hr, read-out: Plasma Concentration, Mean",18.8 ng/mL
same,concentration at 12 hr,"[1]; male, C57BL6/j, mouse, plasma, po, PO 20 mg/kg, 12 hr, read-out: Plasma Concentration, individual mice",20.2 ng/mL
same,bioavailability,"[1]; male, C57BL6/j, mouse, plasma, PO 20 mg/kg vs IV 20 mg/kg, read-out: F (bioavailability)",57.1%
same,AUC(0-inf),[1]; [6],8490 ng·h/mL
same,AUC(0-t),[1]; [6],8100 ng·h/mL
same,Cmax,[1]; [6],3220 ng/mL
same,Tmax,[1]; [6],0.5 h
same,half-life,[1]; [6],2.84 h
same,MRT inf,[1]; [6],2.67 h
same,clearance,"[1]; male, C57BL6/j, mouse, plasma, IV 20 mg/kg, read-out: systemic clearance (converted)",39.2 mL/min/kg
same,AUC(0-inf),[1]; [7],4850 ng·h/mL
same,AUC(0-t),[1]; [7],4810 ng·h/mL
same,Cmax,[1]; [7],1390 ng/mL
same,Tmax,[1]; [7],1 h
same,half-life,[1]; [7],1.57 h
same,MRT inf,[1]; [7],2.91 h
same,CLz,"[1]; plasma, IV 20 mg/kg",39.2413 mL/min/kg
same,postdose observations,[2],No abnormal observations were noted
same,"Brain Concentration, individual mice",[3]; 1 h,18.92 ng/g
same,"Brain-Plasma Concentration Ratio, individual mice",[3]; 1 h,0.01 mL/g
same,"Brain Concentration, individual mice",[3]; 2 h,9.49 ng/g
same,"Brain-Plasma Concentration Ratio, individual mice",[3]; 2 h,0.01 mL/g
same,MRT inf,[4]; iv,9.91 h
same,Tmax,[4]; iv,0.5 h
same,half-life,[4]; iv,6.41 h
same,concentration at 0.5 h,"[4]; iv, Brain Concentration, Mean",96.1 ng/g
same,concentration at 1 h,"[4]; iv, Brain Concentration, Mean",85.5 ng/g
same,concentration at 2 h,"[4]; iv, Brain Concentration, Mean",73.7 ng/g
same,concentration at 4 h,"[4]; iv, Brain Concentration, Mean",48 ng/g
same,concentration at 8 h,"[4]; iv, Brain Concentration, Mean",30 ng/g
same,concentration at 12 h,"[4]; iv, Brain Concentration, Mean",29.8 ng/g
same,concentration at 0.5 h,[4]; [8],116 ng/g
same,concentration at 1 h,[4]; [8],76.6 ng/g
same,concentration at 2 h,[4]; [8],79.1 ng/g
same,concentration at 4 h,[4]; [8],34.1 ng/g
same,Kp at 0.5 hr,[4]; [9],0.03
same,Kp at 1 h,[4]; [9],0.08
same,Kp at 2 h,[4]; [9],0.07
same,Kp at 4 h,[4]; [9],0.13
same,Kp at 8 h,[4]; [9],0.23
same,Kp at 12 h,[4]; [9],0.44
same,Kp at 0.5 hr,[4]; [10],0.03
same,Kp at 2 h,[4]; [10],0.09
same,Kp at 4 h,[4]; [10],0.17
same,Tmax,[4]; po,4 h
same,concentration at 1 h,"[4]; po, Brain Concentration, Mean",14.9 ng/g
same,concentration at 2 h,"[4]; po, Brain Concentration, Mean",12.3 ng/g
same,concentration at 4 h,"[4]; po, Brain Concentration, Mean",15.6 ng/g
same,concentration at 1 h,[4]; [11],10.9 ng/g
same,concentration at 2 h,[4]; [11],15.1 ng/g
same,concentration at 4 h,[4]; [11],14.2 ng/g
same,Kp at 1 h,[4]; [12],0.01
same,Kp at 2 h,[4]; [12],0.01
same,Kp at 4 hr,[4]; [12],0.02
same,Kp at 1 h,[4]; [13],0.01
same,Kp at 2 h,[4]; [13],0.01
same,Kp at 4 hr,[4]; [13],0.02
CCOc1ccccc1-n1c(C(C)N2CCN(C(=O)COc3ccc(Cl)cc3)CC2)nc2ccccc2c1=O (centres unmarked) [erastin],EC50,[5]; read-out: EC50 (BJELR),1800 nM
same,EC50,[5]; read-out: EC50 (BJeLR),1780 nM
